Source: patent US8592421B2, “Cyclic bioisosters of purine system derivatives and a pharmaceutical composition based thereon” (priority 2003, dated 2013)

Experiments:
[1] = Chronic toxicity of suppositories: biochemical indexes of blood serum; format: in vivo, rats; details: rat, in vivo;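 further: inbred rats dosed rectally with softened suppositories, controls given matching volumes of sterile medical liquid paraffin, serum sampled one month into a two-month dosing course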
Description: The experiments were conducted on inbred rats.
Two doses of preparations used in the experiments: 50 mg/kg and 500 mg/kg. Before the administration, the suppositories were softened by heating in a glass water bath at a temperature of 38-39° C., the soft mass was collected in tuberculin syringe in a volume of 1 ml, a needle with oliva was attached to the syringe, and the preparatory mass was introduced into the rectum of the animal for a depth of 1.5-2.0 cm. The animals of the control group were administered with sterile medical liquid paraffin in a volume corresponding to the volume of the investigated suppository. A complete course of administration of drugs to the animals was two months. A complex of laboratory diagnostic investigations was carried out one month after the beginning of the administration of the preparation to the animal—in a middle of the course (8 animals), two months after ending the course (8 animals) and three months after ending the recovery period of one month (8 animals). The mass of the body of the rats in the first month of administration of the preparation was determined weekly, and then once in two weeks. On the basis of the dynamics of an index of the mass of the animal body, the volume of preparation being administered was corrected taking into account the test dose.

plasma hemostasis [2] = assay: Prothrombin time after intravenous administration; format: in vivo, rabbit; details: for effect on the prothrombin time index: doses of 15.0, 30.0, 60.0 mg/kg
Description: (§1) The static parameters of the blood and plasma coagulation (partial activated thromboplastin time, thrombin time, maximum coagulation activity (test for auto coagulation) were determined using the Behnk Electronic coagulometer (Germany). The operating principle of this instrument is based on the fact that the formed blood clot breaks the contacts of the pulse counter in the flask-pin circuit, said pin permanently oscillating in a vertical plane. The moment of formation of the clot is registered by stopping the stop watch hand.
(§2) The measurements were effected at a constant temperature of 37° C. maintained by a temperature control unit.
The method of its determination is based on estimation of the coagulation of citrate or oxalic blood plasma, when it is mixed with thromboplastin and a calcium chloride solution. Since under these conditions the time of formation of the clot depends on the content of II, VII, IX and X factors in the investigated plasma sample, now the test is called “thromboplastin time by Quick” or “activity thromboplastin complex”.
Citrate blood containing 1 part of citrate per 9 parts of native blood was centrifuged at 3000 rev/min for 10 minutes to obtain plasma deprived of thrombocytes.
Added into a test tube in a water bath were 0.1 ml of plasma and 0.1 ml of a thromboplastin solution.

plasma hemostasis [3] = assay: Autocoagulation test (coagulating activity A) after intravenous administration; format: in vivo, rabbit; details: for effect on the coagulation activity according to the autocoagulation test: doses 15.0, 30.0, 60.0 mg/kg
Description: The investigations were performed on 72 rabbits of the “Chinchilla” breed with a mass of 2.5±0.3 kg, who were administered which solutions of compounds 2, 15, 21, 37 in doses of 15, 30 and 60 mg/kg intravenously. The experiments included the thrombin-test (series No. 7300) and the coagulability-test (series No. 5000) purchased from the scientific-and-production association (SPA) “Renam”, thromboplastin (series No. 240600) and calcium chloride purchased from the SPA “MedioLab”
as §1, §2
Compounds 2, 15, 21, 37 according to the invention at a concentration of 15, 30 and 60 mg/kg were intravenously administered to the above experimental animals and their blood samples were taken off 15, 30, 60 and 120 minutes after the administration.
Added to 0.2 ml of plasma obtained by centrifuging citrate blood at 1500 rev/min within 10 minutes was a glycosylate-calcium mixture (2.0 ml 0.222% CaCl2+0.1 ml of investigated citrate blood) 4, 6, 8, 10 minutes after the preparation of this mixture and the time of coagulation in the sample was determined.
The obtained results in seconds were translated in factors of coagulating activity A in percent, which specify the state of both the coagulating and anticoagulating parts of the blood coagulating system. The results of the experiments are given in Table 7. • The effect of the compounds according to the invention on the values of coagulating activity A by the data of autocoagulation test with intravenous administration of the compounds to the rabbits

[4] = system: adenosine-sensitive receptors of erythrocytes; assay: Interaction with adenosine-sensitive receptors of erythrocytes (chemiluminescence of bound compound, adenosine competition); format: binding, mice of line BALB/c; details: incubation at 37° C. vs 4° C., 10^−7 to 10^−5 M
Description: The interaction of compounds 2, 15, 21, 37 according to the invention with adenosine-sensitive receptors of erythrocytes of female mice of line BALB/c of an age of 8-12 months was investigated.
The dependence of the chemiluminescence intensity of the compounds according to the invention in an alkaline solution of 0.1N NaOH was determined in the presence of hydrogen peroxide being an initiator of chemiluminescence. The chemiluminescence was studied using the <<LKB>> chemiluminometer.
The erythrocytes of peripheral blood of the mice at first were washed three times by a normal physiological solution with centrifuging and then diluted in the Henks solution without glucose by 10 volumes of distilled water immediately used in the experiment.
At the first stage of the experiments the washed erythrocytes were incubated at a temperature of 37° C. or at 4° C. with solutions of the compounds according to the invention at a concentration of 10^−7 to 10^−5 M for 5-30 minutes, then washed by a normal physiological solution with repeated centrifuging in the cold. The obtained suspension of erythrocytes with the bound compounds according to the invention was placed in 0.1N solution of NaOH with addition of hydrogen peroxide at a final concentration of 10^−7 M. The chemiluminescence intensity was measured. A suspension of erythrocytes without compounds according to the invention was used as a control medium.
At the second stage of the experiments the washed erythrocytes were incubated at a temperature of 37° C. with solutions of the compounds according to the invention at a concentration of 10^−11 to 10^−8 M during 5-30 minutes, then washed twice with a normal physiological solution by centrifuging in the cold, the obtained suspension was mixed with an adenosine solution at a concentration of 10^−6 to 10^−4 and incubated for 15 minutes, then washed twice with a normal physiological solution with centrifuging in the cold. The obtained suspension of erythrocytes with the compounds according to the invention was placed in 0.1N solution of NaOH with addition of hydrogen peroxide in the final concentration of 10^−7 M. The chemiluminescence intensity was measured.

[5] = system: synthase of nitrogen oxide (NOC); assay: Morphine abstinence model: activity of synthase of nitrogen oxide (NOC), radiometric [3H]L-citrulline method; format: in vivo, rats Wistar; details: 20.0 mg/kg intramuscularly; for Activity of NOC: Mesencephalon: control 2.18 ± 0.09; for Activity of NOC: Hypothalamus: control 5.37 ± 0.20
[6] = 15.0 mg/kg intravenously, after 15 minutes, control 11.8 ± 0.1
[7] = 15.0 mg/kg intravenously, after 30 minutes, control 11.8 ± 0.1
[8] = 15.0 mg/kg intravenously, after 60 minutes, control 11.8 ± 0.1
[9] = 15.0 mg/kg intravenously, after 120 minutes, control 11.8 ± 0.1
[10] = 30.0 mg/kg intravenously, after 15 minutes, control 11.2 ± 0.1
[11] = 30.0 mg/kg intravenously, after 30 minutes, control 11.2 ± 0.1
[12] = 30.0 mg/kg intravenously, after 60 minutes, control 11.2 ± 0.1
[13] = 30.0 mg/kg intravenously, after 120 minutes, control 11.2 ± 0.1
[14] = 60.0 mg/kg intravenously, after 15 minutes, control 12.0 ± 0.1
[15] = 60.0 mg/kg intravenously, after 30 minutes, control 12.0 ± 0.1
[16] = 60.0 mg/kg intravenously, after 60 minutes, control 12.0 ± 0.1
[17] = 60.0 mg/kg intravenously, after 120 minutes, control 12.0 ± 0.1
[18] = 15.0 mg/kg intravenously, after 15 minutes, control 85.6
[19] = 15.0 mg/kg intravenously, after 30 minutes, control 85.6
[20] = 15.0 mg/kg intravenously, after 60 minutes, control 85.6
[21] = 15.0 mg/kg intravenously, after 120 minutes, control 85.6
[22] = 30.0 mg/kg intravenously, after 15 minutes, control 70.0
[23] = 30.0 mg/kg intravenously, after 30 minutes, control 70.0
[24] = 30.0 mg/kg intravenously, after 60 minutes, control 70.0
[25] = 30.0 mg/kg intravenously, after 120 minutes, control 70.0
[26] = 60.0 mg/kg intravenously, after 15 minutes, control 65.9
[27] = 60.0 mg/kg intravenously, after 30 minutes, control 65.9
[28] = 60.0 mg/kg intravenously, after 60 minutes, control 65.9
[29] = 60.0 mg/kg intravenously, after 120 minutes, control 65.9

Nc1ccnc2c(=O)n([C@@H]3O[C@H](CO)[C@@H](O)[C@H]3O)[nH]c(=O)c12 [Compound 2, 4-amino-7-(β-D-ribofuranosile)pyrido[2,3-d]-6H-pyridazine-5,8-dione]
ALT in blood serum ([1]; 50 mg/kg): 10.84 ± 2.02 unit/l
AST in blood serum ([1]; 50 mg/kg): 20.41 ± 3.06 unit/1
Alkalinous phosphatase in blood serum ([1]; 50 mg/kg): 42.12 ± 4.23 unit/l
Bilirubin in blood serum ([1]; 50 mg/kg): 44.38 ± 4.12 mmol/L
Cholesterol in blood serum ([1]; 50 mg/kg): 2.77 ± 0.71 mmol/L
Creatinine in blood serum ([1]; 50 mg/kg): 47.38 ± 3.26 mkmol/l
Glucose in blood serum ([1]; 50 mg/kg): 9.85 ± 0.37 mM
Total protein in blood serum ([1]; 50 mg/kg): 87.34 ± 5.56 g/L
Urea in blood serum ([1]; 50 mg/kg): 11.02 ± 0.73 Mkmol/l
ALT in blood serum ([1]; 500 mg/kg): 11.23 ± 1.70 unit/l
AST in blood serum ([1]; 500 mg/kg): 20.13 ± 2.95 unit/1
Alkalinous phosphatase in blood serum ([1]; 500 mg/kg): 43.4 ± 2.12 unit/l
Bilirubin in blood serum ([1]; 500 mg/kg): 42.56 ± 7.56 mmol/L
Cholesterol in blood serum ([1]; 500 mg/kg): 2.96 ± 0.52 mmol/L
Creatinine in blood serum ([1]; 500 mg/kg): 49.87 ± 8.12 mkmol/l
Glucose in blood serum ([1]; 500 mg/kg): 10.2 ± 0.74 mM
Total protein in blood serum ([1]; 500 mg/kg): 70.84 ± 7.47 g/L
Urea in blood serum ([1]; 500 mg/kg): 11.30 ± 0.80 Mkmol/l
prothrombin time, T (plasma hemostasis [2]; [6]): 11.7 ± 0.2 s
prothrombin time, T (plasma hemostasis [2]; [7]): 11.5 ± 0.2 s
prothrombin time, T (plasma hemostasis [2]; [8]): 11.4 ± 0.2 s
prothrombin time, T (plasma hemostasis [2]; [9]): 11.7 ± 0.1 s
prothrombin time, T (plasma hemostasis [2]; [10]): 11.1 ± 0.2 s
prothrombin time, T (plasma hemostasis [2]; [11]): 11.0 ± 0.1 s
prothrombin time, T (plasma hemostasis [2]; [12]): 11.3 ± 0.1 s
prothrombin time, T (plasma hemostasis [2]; [13]): 11.2 ± 0.2 s
prothrombin time, T (plasma hemostasis [2]; [14]): 12.0 ± 0.1 s
prothrombin time, T (plasma hemostasis [2]; [15]): 11.9 ± 0.2 s
prothrombin time, T (plasma hemostasis [2]; [16]): 12.1 ± 0.2 s
prothrombin time, T (plasma hemostasis [2]; [17]): 11.9 ± 0.1 s
effect on the prothrombin time index (plasma hemostasis [2]): have no effect on the prothrombin time index
coagulating activity A (autocoagulation test) (plasma hemostasis [3]; [18]): 80.2%
coagulating activity A (autocoagulation test) (plasma hemostasis [3]; [19]): 100.0%
coagulating activity A (autocoagulation test) (plasma hemostasis [3]; [20]): 87.4%
coagulating activity A (autocoagulation test) (plasma hemostasis [3]; [21]): 98.0%
coagulating activity A (autocoagulation test) (plasma hemostasis [3]; [22]): 98.4%
coagulating activity A (autocoagulation test) (plasma hemostasis [3]; [23]): 71.2%
coagulating activity A (autocoagulation test) (plasma hemostasis [3]; [24]): 104.2%
coagulating activity A (autocoagulation test) (plasma hemostasis [3]; [25]): 70.9%
coagulating activity A (autocoagulation test) (plasma hemostasis [3]; [26]): 72.3%
coagulating activity A (autocoagulation test) (plasma hemostasis [3]; [27]): 60.8%
coagulating activity A (autocoagulation test) (plasma hemostasis [3]; [28]): 62.5%
coagulating activity A (autocoagulation test) (plasma hemostasis [3]; [29]): 65.7%
effect on the coagulation activity according to the autocoagulation test (plasma hemostasis [3]): have no effect on the coagulation activity
dependence of the bond with erythrocytes on temperature [4]: does not depend on the temperature

O=c1[nH][nH]c(=O)c2ncccc12.[Li] [Compound 6, lithium salt of pyrido[2,3-d]-6H-pyridazine-5,8-dione]
Activity of NOC: Mesencephalon ([5]; Control + Compound): 2.84 ± 0.31 pmol/min/mg of protein
Activity of NOC: Hypothalamus ([5]; Control + Compound): 5.93 ± 0.27 pmol/min/mg of protein
Activity of NOC: Mesencephalon ([5]; Control + Morphine + compound): 1.99 ± 0.31 pmol/min/mg of protein
Activity of NOC: Hypothalamus ([5]; Control + Morphine + compound): 5.24 ± 0.24 pmol/min/mg of protein

Nc1cnc2c(=O)n([C@@H]3O[C@H](CO)[C@@H](O)[C@H]3O)[nH]c(=O)c2n1.[Na] [Compound 21, sodium salt of 3-amino-7-(β-D-ribofuranosile)pyrazine[2,3-d]-6H-pyridazine-5,8-dione]
prothrombin time, T (plasma hemostasis [2]; [6]): 11.4 ± 0.2 s
prothrombin time, T (plasma hemostasis [2]; [7]): 11.5 ± 0.1 s
prothrombin time, T (plasma hemostasis [2]; [8]): 11.3 ± 0.1 s
prothrombin time, T (plasma hemostasis [2]; [9]): 11.5 ± 0.2 s
prothrombin time, T (plasma hemostasis [2]; [10]): 11.2 ± 0.1 s
prothrombin time, T (plasma hemostasis [2]; [11]): 11.2 ± 0.1 s
prothrombin time, T (plasma hemostasis [2]; [12]): 11.3 ± 0.2 s
prothrombin time, T (plasma hemostasis [2]; [13]): 11.2 ± 0.2 s
prothrombin time, T (plasma hemostasis [2]; [14]): 12.0 ± 0.2 s
prothrombin time, T (plasma hemostasis [2]; [15]): 11.8 ± 0.1 s
prothrombin time, T (plasma hemostasis [2]; [16]): 12.1 ± 0.1 s
prothrombin time, T (plasma hemostasis [2]; [17]): 12.0 ± 0.2 s
effect on the prothrombin time index (plasma hemostasis [2]): have no effect on the prothrombin time index
coagulating activity A (autocoagulation test) (plasma hemostasis [3]; [18]): 81.4%
coagulating activity A (autocoagulation test) (plasma hemostasis [3]; [19]): 101.3%
coagulating activity A (autocoagulation test) (plasma hemostasis [3]; [20]): 86.5%
coagulating activity A (autocoagulation test) (plasma hemostasis [3]; [21]): 97.4%
coagulating activity A (autocoagulation test) (plasma hemostasis [3]; [22]): 97.2%
coagulating activity A (autocoagulation test) (plasma hemostasis [3]; [23]): 69.1%
coagulating activity A (autocoagulation test) (plasma hemostasis [3]; [24]): 103.7%
coagulating activity A (autocoagulation test) (plasma hemostasis [3]; [25]): 71.0%
coagulating activity A (autocoagulation test) (plasma hemostasis [3]; [26]): 71.9%
coagulating activity A (autocoagulation test) (plasma hemostasis [3]; [27]): 62.1%
coagulating activity A (autocoagulation test) (plasma hemostasis [3]; [28]): 63.7%
coagulating activity A (autocoagulation test) (plasma hemostasis [3]; [29]): 66.2%
effect on the coagulation activity according to the autocoagulation test (plasma hemostasis [3]): have no effect on the coagulation activity
dependence of the bond with erythrocytes on temperature [4]: does not depend on the temperature

O=c1[nH][nH]c(=O)c2nccnc12.[Li] [Compound 25, lithium salt of pyrazine[2,3-d]-6H-pyridazine-5,8-dione]
Activity of NOC: Mesencephalon ([5]; Control + Compound): 2.65 ± 0.43 pmol/min/mg of protein
Activity of NOC: Hypothalamus ([5]; Control + Compound): 5.88 ± 0.27 pmol/min/mg of protein
Activity of NOC: Mesencephalon ([5]; Control + Morphine + compound): 1.97 ± 0.27 pmol/min/mg of protein
Activity of NOC: Hypothalamus ([5]; Control + Morphine + compound): 5.23 ± 0.27 pmol/min/mg of protein
